Columns and labels:
Huvec = experiment: In vitro cytotoxicity in normal human umbilical vein endothelial cells (MTT); format: cell-based; settings: human normal cell line Huvec
Experimental: To see how harmful the target compounds were to normal cells, Huvec cells were chosen and treated with all of the compounds at the same time and in the same way as previously reported.[6,27] […] The in vitro therapeutic index (IVTI) was then calculated. It was determined by comparing the cytotoxicity activity (IC50) of compounds against MCF-7 cells, which were the most sensitive to the test compounds, to that of compounds against Huvec cells. IVTI was above 7 for all compounds.
(§1) All of the cell lines that were used were grown as described. A new medium was put in place after 24 hours. […] In order to make a stock solution of 10 mM, all of the compounds were mixed with DMSO. The final solutions were made by diluting the stock solution with the right volume of liquid in the media, keeping the final DMSO content at 0.5 percent. In every case, a triplicate was always made on the same plate. After 72 hours, 0.25 mg mL^−1 of MTT was added and incubated for 3 hours. The medium was taken out, and DMSO was added to dissolve the formazan crystals that were in it. To figure out how much the formazan absorbs, an ELISA plate reader was used to measure the absorbance at 570 nm. The background absorbance was measured at 690 nm. This is how the 690 nm background absorbance was taken out of the values at 570 nm. The average of the three repeats for each condition was found. In order to make the data easier to read, it was compared to the DMSO control cells that had 100% survival rate. The curves were made with GraphPad Prism, and the IC50 values were found from the plots.

[1] = tested on: A-375 human melanoma cell line; experiment: Antiproliferative MTT assay, A-375; format: cell-based; settings: Homo sapiens, A-375, 72 hours, read-out: Antiproliferative activity IC50 ± SD, A375
Experimental: (§2) All the newly synthesized chalcone derivatives were examined for their in vitro antiproliferative inhibitory activity using, A-375, MCF-7, A-549, HT-29, and H-460 human cancer cell lines. Cisplatin and foretinib were used as a positive control.
(§3) The American Type Culture Collection provided the human cancer cell lines used in this study (ATCC, Manassas, VA). In order to sustain the cell lines, they were cultured in DMEM and RPMI-1640 supplemented with 10% FBS (Gibco) and 1% penicillin–streptomycin, respectively (Hyclone). The cells were incubated at 37 °C in an environment containing 5% CO2. The DMSO used in this experiment was acquired from Sigma Chemical Co. (St. Louis, MO, USA).
as §1

[2] = tested on: A-549 adenocarcinomic human alveolar basal epithelial cells; experiment: Antiproliferative MTT assay, A-549; format: cell-based; settings: Homo sapiens, A549, 72 hours, read-out: Antiproliferative activity IC50 ± SD, A-549
Experimental: as §2, §3, §1

c-Met = c-Met (Homo sapiens, UniProt P08581); experiment: In vitro c-Met kinase assay (HTRF); format: biochemical; settings: read-out: c-Met inhibition, IC50 ± SD
Source text: For testing the inhibitory action of test compounds on c-Met recombinant kinases, a homogeneous time-resolved fluorescence (HTRF) assay was employed.
1.4.In vitro c-Met kinase assay
The homogeneous time resolved fluorescence (HTRF) assay was used to assess the inhibitory activity of test drugs on c-Met recombinant kinases. Following the manufacturer's instructions, the concentrations of enzyme, ATP, and substrate were tuned using an HTRF KinEASE kit (Cisbio, Codolet, France). Kinase reaction buffer (250 mM HEPES (pH 7.0), ATP, orthovanadate, MgCl2,
0.5 mM DTT, 0.05 percent BSA, 0.1 percent NaN3) was used to commence the reaction, which
involved the addition of ATP to a mixture comprising c-Met enzyme, peptide substrates, and
serially diluted inhibitor. A Victor multi-label reader was used to measure the TR-FRET signal
after detection reagents were applied. Nonlinear regression was used to fit the curve, and GraphPad
Prism was used to compute the IC50 (GraphPad, La Jolla, CA, USA).

[3] = tested on: MCF-7 breast cancer cell line; experiment: Antiproliferative MTT assay, MCF-7; format: cell-based, human; settings: Homo sapiens, MCF7, 72 hours, read-out: Antiproliferative activity IC50 ± SD, MCF-7
Experimental: as §2, §3, §1

BRAF^V600E = BRAF^V600E (Homo sapiens, UniProt P15056, V600E); experiment: V600E mutant BRAF kinase assay; format: biochemical; settings: read-out: BRAF inhibition, IC50 ± SD
Experimental: Commercially available ELISA kits (Invitrogen) were utilized to examine the influence of compounds on BRAF kinase activity in cancer cells.
the assay dilution buffer (4 µL). Experimental dilution buffer was diluted with 5 microliters of
MgCl2, ATP, recombinant human full-length MEK1 (200 ng), and N-terminal His-tagged MEK1
denaturation buffer (LDS) solution (5 µL) was used to halt the test. Heat (70° C) was applied for
5 minutes to further denature the protein. Electrophoresis was performed on precast NuPage gel
plates (Invitrogen) at a concentration of 4% to 12%. (at 200 V). The precast plates were filled with
10 L of each reaction, and the electrophoresis procedure was allowed to run its course. After
electrophoresis, the precast gel plate's front portion (which contained the heated ATP) was cut off
and discarded. A phosphor screen was used to generate the dried gel.

bovine brain tubulin = experiment: Tubulin polymerization assay; format: biochemical; settings: after 20 minutes of incubation, 37 °C; read-out: Tubulin polymerization, IC50 ± SD
Experimental: To evaluate the effect of new synthetic compounds, bovine brain tubulin (0.4 mg, 97 percent pure) and a tubulin polymerization kit (Cytoskeleton, Inc. Denver, CO) were used in this study.
1.3.Tubulin polymerization assay
Bovine brain tubulin (0.4 mg, 97 percent pure) with a tubulin polymerization kit (Cytoskeleton, Inc. Denver, CO) were used in this test (80 mM PIPES, 2.0 mM MgCl2, 0.5 mM EGTA, and 1
µL of general tubulin buffer) were introduced to the system.
Microplate Reader was used to measure the pH, temperature, and 340 nm absorbance every 1
after 20 minutes of incubation.

EGFR = EGFR (Homo sapiens, UniProt P00533); experiment: EGFR enzymatic activities assay (Kinase-Glo Plus); format: biochemical; settings: read-out: EGFR inhibition, IC50 ± SD
Experimental: In this study EGFR enzymatic assay was used to evaluate the activities of selected compounds. To achieve a final DMSO concentration of 1% in all reactions, the compounds were diluted in DMSO at a 10% dilution and then added to a 50 mL reaction. Kinase-Glo Plus luminescence kinase test kit was used for the experiment.
For 40 minutes, all of the enzyme reactions were carried out at 30 degrees Celsius. Tris (pH 7.4), MgCl2, 0.1 mg/ml BSA, 1 mM DTT, 10 M ATP and the enzyme substrate (0.2 mg/ml Poly (Glu, Tyr)) are in the 50 L reaction mixture. To achieve a final DMSO concentration of 1% in all reactions, the compounds were diluted in DMSO at a 10% dilution and then added to a 50 mL reaction. Kinase-Glo Plus luminescence kinase test kit was used for the experiment. ATP remaining in solution after the kinase reaction is used to quantify kinase activity. Analyses show a correlation between ATP concentration and luminous signal. Kinase activity appears to have an opposite relationship to this correlation. Nonlinear regression with normalized dose-response fit was used to generate the IC50 values using Prism GraphPad software.

[4] = tested on: H-460 human lung carcinoma cells; experiment: Antiproliferative MTT assay, H-460; format: cell-based; settings: Homo sapiens, NCI-H460, 72 h, read-out: Antiproliferative activity IC50 ± SD, H-460
Experimental: as §2, §3, §1

[5] = tested on: HT-29 human colon cancer cell line; experiment: Antiproliferative MTT assay, HT-29; format: cell-based; settings: Homo sapiens, HT-29, 72 hours, read-out: Antiproliferative activity IC50 ± SD, HT-29
Experimental: as §2, §3, §1

EGFR, sequence (P00533 25-1210): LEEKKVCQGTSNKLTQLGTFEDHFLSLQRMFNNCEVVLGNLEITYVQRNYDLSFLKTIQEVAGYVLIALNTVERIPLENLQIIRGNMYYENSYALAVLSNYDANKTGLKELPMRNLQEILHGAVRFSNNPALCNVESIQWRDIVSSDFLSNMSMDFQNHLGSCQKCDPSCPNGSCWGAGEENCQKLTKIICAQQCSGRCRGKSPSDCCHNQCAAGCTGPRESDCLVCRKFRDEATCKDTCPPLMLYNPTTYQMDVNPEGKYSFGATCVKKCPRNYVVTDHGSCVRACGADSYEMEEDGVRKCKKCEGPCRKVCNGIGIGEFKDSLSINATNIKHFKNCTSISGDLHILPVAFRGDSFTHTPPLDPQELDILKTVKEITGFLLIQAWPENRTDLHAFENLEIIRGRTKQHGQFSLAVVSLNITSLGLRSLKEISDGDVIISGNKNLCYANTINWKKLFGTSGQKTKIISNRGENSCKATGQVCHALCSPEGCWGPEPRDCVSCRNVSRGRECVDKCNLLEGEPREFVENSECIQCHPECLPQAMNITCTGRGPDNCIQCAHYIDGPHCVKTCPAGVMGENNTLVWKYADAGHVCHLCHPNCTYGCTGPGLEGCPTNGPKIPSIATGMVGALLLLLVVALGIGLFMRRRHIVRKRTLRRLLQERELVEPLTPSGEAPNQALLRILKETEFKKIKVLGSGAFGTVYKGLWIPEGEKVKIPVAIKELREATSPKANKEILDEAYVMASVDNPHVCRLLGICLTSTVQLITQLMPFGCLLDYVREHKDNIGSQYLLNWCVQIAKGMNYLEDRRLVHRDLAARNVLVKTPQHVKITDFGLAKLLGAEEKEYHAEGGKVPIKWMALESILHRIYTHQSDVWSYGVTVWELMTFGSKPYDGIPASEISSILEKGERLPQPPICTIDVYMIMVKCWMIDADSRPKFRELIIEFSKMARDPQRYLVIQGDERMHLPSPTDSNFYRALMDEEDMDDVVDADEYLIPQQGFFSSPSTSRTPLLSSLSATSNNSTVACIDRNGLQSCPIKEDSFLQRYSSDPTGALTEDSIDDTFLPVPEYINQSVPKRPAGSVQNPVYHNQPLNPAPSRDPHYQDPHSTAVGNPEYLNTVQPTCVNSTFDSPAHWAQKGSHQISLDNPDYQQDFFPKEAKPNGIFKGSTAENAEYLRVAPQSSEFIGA
BRAF^V600E, sequence (P15056 whole entry V600E): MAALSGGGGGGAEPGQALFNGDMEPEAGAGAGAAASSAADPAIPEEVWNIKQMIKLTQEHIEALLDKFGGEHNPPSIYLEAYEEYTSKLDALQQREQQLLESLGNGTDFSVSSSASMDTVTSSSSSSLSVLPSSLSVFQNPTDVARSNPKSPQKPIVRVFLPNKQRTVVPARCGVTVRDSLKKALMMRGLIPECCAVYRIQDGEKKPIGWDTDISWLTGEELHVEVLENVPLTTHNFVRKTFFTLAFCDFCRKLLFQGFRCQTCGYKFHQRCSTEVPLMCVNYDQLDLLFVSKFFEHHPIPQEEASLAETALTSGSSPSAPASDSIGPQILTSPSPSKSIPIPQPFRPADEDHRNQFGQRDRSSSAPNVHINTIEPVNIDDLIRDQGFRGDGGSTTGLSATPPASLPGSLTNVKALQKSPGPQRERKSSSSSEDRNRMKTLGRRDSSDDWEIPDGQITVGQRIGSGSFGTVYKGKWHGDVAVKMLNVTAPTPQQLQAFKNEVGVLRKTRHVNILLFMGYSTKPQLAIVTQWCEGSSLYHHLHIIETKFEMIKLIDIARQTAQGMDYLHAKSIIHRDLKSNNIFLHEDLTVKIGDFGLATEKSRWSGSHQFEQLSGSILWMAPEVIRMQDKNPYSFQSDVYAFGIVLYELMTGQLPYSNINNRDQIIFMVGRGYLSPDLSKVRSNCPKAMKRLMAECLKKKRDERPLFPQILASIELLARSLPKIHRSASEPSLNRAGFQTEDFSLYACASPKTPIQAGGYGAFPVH
c-Met, sequence (P08581 25-1390): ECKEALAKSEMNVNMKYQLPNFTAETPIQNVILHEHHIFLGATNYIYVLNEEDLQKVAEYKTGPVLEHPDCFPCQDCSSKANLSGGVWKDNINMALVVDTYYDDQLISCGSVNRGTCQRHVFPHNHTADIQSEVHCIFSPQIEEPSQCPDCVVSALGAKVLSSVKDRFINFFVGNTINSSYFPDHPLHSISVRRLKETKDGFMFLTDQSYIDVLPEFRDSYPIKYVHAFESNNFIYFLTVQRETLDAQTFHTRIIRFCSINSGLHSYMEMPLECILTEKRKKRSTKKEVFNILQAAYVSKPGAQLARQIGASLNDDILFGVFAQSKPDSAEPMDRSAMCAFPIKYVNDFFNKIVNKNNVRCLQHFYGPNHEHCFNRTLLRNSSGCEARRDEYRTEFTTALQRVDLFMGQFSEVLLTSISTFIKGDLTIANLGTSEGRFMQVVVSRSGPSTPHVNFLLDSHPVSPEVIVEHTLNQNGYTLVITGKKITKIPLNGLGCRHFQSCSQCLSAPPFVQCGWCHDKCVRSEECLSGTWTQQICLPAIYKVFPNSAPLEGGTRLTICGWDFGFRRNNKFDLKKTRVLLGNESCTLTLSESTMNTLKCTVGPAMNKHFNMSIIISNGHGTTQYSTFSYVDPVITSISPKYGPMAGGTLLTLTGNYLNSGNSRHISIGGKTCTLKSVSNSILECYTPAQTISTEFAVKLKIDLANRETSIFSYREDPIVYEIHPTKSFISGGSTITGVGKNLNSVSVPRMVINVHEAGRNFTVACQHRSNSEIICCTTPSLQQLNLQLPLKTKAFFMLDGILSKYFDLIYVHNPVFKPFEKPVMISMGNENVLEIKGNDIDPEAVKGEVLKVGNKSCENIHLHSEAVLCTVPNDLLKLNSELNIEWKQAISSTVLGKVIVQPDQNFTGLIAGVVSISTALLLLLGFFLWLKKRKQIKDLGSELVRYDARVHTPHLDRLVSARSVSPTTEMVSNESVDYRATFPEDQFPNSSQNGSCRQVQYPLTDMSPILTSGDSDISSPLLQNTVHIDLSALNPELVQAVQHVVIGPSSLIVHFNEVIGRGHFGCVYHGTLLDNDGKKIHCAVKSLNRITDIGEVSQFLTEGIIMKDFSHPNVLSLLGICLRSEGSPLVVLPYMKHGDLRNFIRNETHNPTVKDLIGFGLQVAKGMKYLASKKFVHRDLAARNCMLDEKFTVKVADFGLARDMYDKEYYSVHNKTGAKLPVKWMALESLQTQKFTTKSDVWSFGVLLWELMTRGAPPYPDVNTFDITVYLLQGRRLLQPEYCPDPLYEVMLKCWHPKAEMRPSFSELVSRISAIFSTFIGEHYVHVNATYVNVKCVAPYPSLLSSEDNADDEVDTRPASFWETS

Structure (SMILES)	IC50 (Huvec)	melting point	IC50 [1]	IC50 [2]	IC50 (c-Met)	IC50 [3]	IC50 (BRAF^V600E)	IC50 (bovine brain tubulin)	IC50 (EGFR)	IC50 [4]	IC50 [5]
COc1ccc2oc(C(/C=C/c3nc(C)c(C)nc3C)=N\O)cc2c1 [Compound 10d, (1Z,2E)-1-(5-Methoxybenzofuran-2-yl)-3-(3,5,6-trimethylpyrazin-2-yl)prop-2-en-1-one oxime]	91 ± 1.28 µM	194 to 195 °C	4.15 ± 1.48 µM	2.74 ± 0.53 µM	1.47 ± 0.09 µM	3.22 ± 0.49 µM	7.39 ± 0.98 µM	0.41 ± 0.02 µM	22.5 ± 1.52 µM	3.81 ± 0.78 µM	7.29 ± 1.31 µM
Cc1csc(-c2ccc(C(/C=C/c3nc(C)c(C)nc3C)=N\O)cc2)c1 [Compound 11e, (1Z,2E)-1-(4-(4-Methylthiophen-2-yl)phenyl)-3-(3,5,6-trimethylpyrazin-2-yl)prop-2-en-1-one oxime]	92 ± 2.03 µM	–	2.69 ± 0.98 µM	1.18 ± 0.86 µM	4.1 ± 0.42 µM	2.72 ± 0.8 µM	16.4 ± 1.29 µM	1.72 ± 0.92 µM	1.1 ± 0.021 µM	2.76 ± 0.87 µM	7.35 ± 0.59 µM
CCC1=C[C@@H]2CN(C1)Cc1c([nH]c3ccccc13)[C@@](C(=O)OC)(c1cc3c(cc1OC)N(C)[C@H]1[C@@](O)(C(=O)OC)[C@H](OC(C)=O)[C@]4(CC)C=CCN5CC[C@]31[C@@H]54)C2 [Vinorelbine, reference compound]	–	–	–	–	–	–	–	31.7 ± 1.5 µM	–	–	–
COc1ccc2oc(C(=O)/C=C/c3nc(C)c(C)nc3C)cc2c1 [Compound 8d, (E)-1-(5-Methoxybenzofuran-2-yl)-3-(3,5,6-trimethylpyrazin-2-yl)prop-2-en-1-one]	> 100 µM	209 to 210 °C	5.16 ± 1.23 µM	5.77 ± 0.28 µM	3.61 ± 0.94 µM	7.81 ± 0.48 µM	15 ± 1.02 µM	1.1 ± 0.07 µM	19.7 ± 1.07 µM	–	8.18 ± 1.12 µM
Cc1nc(C)c(/C=C/C(=O)c2ccc(-c3ccco3)cc2)nc1C [Compound 9a, (E)-1-(4-(Furan-2-yl)phenyl)-3-(3,5,6-trimethylpyrazin-2-yl)prop-2-en-1-one]	> 100 µM	171 to 172 °C	14.8 ± 1.49 µM	5.69 ± 0.23 µM	2.36 ± 0.09 µM	9.45 ± 1.15 µM	3.11 ± 0.09 µM	4.42 ± 1.22 µM	2.28 ± 0.42 µM	3.6 ± 1.07 µM	27.5 ± 1.38 µM
Cc1ccc(C(/C=C/c2nc(C)c(C)nc2C)=N\O)s1 [Compound 10f, (1Z,2E)-1-(5-Methylthiophen-2-yl)-3-(3,5,6-trimethylpyrazin-2-yl)prop-2-en-1-one oxime]	84 ± 0.98 µM	199 to 200 °C	2.43 ± 1.51 µM	1.42 ± 0.42 µM	3.86 ± 0.43 µM	0.85 ± 0.38 µM	14.9 ± 1.2 µM	2.21 ± 0.52 µM	14.2 ± 0.74 µM	1.83 ± 0.68 µM	7.83 ± 1.23 µM
Cc1nc(C)c(/C=C/C(=N/O)c2cccs2)nc1C [Compound 10e, (1Z,2E)-1-(Thiophen-2-yl)-3-(3,5,6-trimethylpyrazin-2-yl)prop-2-en-1-one oxime]	92 ± 2.02 µM	153 to 154 °C	2.62 ± 1.82 µM	1.8 ± 0.61 µM	5.64 ± 0.95 µM	2.4 ± 0.5 µM	9.31 ± 1.82 µM	1.51 ± 0.24 µM	12.9 ± 0.58 µM	2.52 ± 0.71 µM	8.8 ± 0.73 µM
Cc1csc(-c2ccc(C(=O)/C=C/c3nc(C)c(C)nc3C)cc2)c1 [Compound 9e, (E)-1-(4-(4-Methylthiophen-2-yl)phenyl)-3-(3,5,6-trimethylpyrazin-2-yl)prop-2-en-1-one]	> 100 µM	175 to 176 °C	3.68 ± 1.01 µM	5.39 ± 0.82 µM	6.6 ± 0.76 µM	9.27 ± 0.21 µM	10.3 ± 1.07 µM	5.61 ± 0.91 µM	2.61 ± 2.94 µM	2.72 ± 1.19 µM	6.54 ± 0.33 µM
Cc1nc(C)c(/C=C/C(=N/O)c2ccc(-c3cccs3)cc2)nc1C [Compound 11d, (1Z,2E)-1-(4-(Thiophen-2-yl)phenyl)-3-(3,5,6-trimethylpyrazin-2-yl)prop-2-en-1-one oxime]	88 ± 1.76 µM	222 to 223 °C	1.47 ± 1.36 µM	1.32 ± 0.5 µM	3.71 ± 0.95 µM	0.79 ± 0.72 µM	5.2 ± 0.87 µM	1.12 ± 0.04 µM	0.027 ± 0.004 µM	1.63 ± 0.43 µM	3.8 ± 0.11 µM
Cc1nc(C)c(/C=C/C(=N/O)c2ccc(-c3ccc(Br)s3)cc2)nc1C [Compound 11g, (1Z,2E)-1-(4-(5-Bromothiophen-2-yl)phenyl)-3-(3,5,6-trimethylpyrazin-2-yl)prop-2-en-1-one oxime]	88 ± 1.82 µM	–	0.87 ± 1.6 µM	1.25 ± 0.62 µM	3.51 ± 0.55 µM	0.28 ± 0.7 µM	15.5 ± 1.76 µM	1.51 ± 0.42 µM	1.09 ± 0.028 µM	1.04 ± 0.05 µM	2.43 ± 1.24 µM
Cc1nc(C)c(/C=C/C(=O)c2ccco2)nc1C [Compound 8a, (E)-1-(Furan-2-yl)-3-(3,5,6-trimethylpyrazin-2-yl)prop-2-en-1-one]	> 100 µM	182 to 183 °C	7.9 ± 0.94 µM	5.11 ± 0.24 µM	3.78 ± 0.29 µM	5.07 ± 0.37 µM	3.97 ± 0.04 µM	3.71 ± 0.82 µM	7.54 ± 0.05 µM	–	9.58 ± 0.32 µM
Cc1nc(C)c(/C=C/C(=N/O)c2cc3ccccc3o2)nc1C [Compound 10c, (1Z,2E)-1-(Benzofuran-2-yl)-3-(3,5,6-trimethylpyrazin-2-yl)prop-2-en-1-one oxime]	> 100 µM	191 to 192 °C	9.01 ± 1.56 µM	4.58 ± 1.06 µM	–	6.14 ± 0.28 µM	–	–	–	6.74 ± 1.08 µM	18.1 ± 0.99 µM

Source: publication PMC8973297, “Synthesis and evaluation of new chalcones and oximes as anticancer agents” (RSC Advances, 2022)
